Data from patent US20050009858A1, “Imiquimod therapies” (priority 2001, published 2005).
“Also recorded” adds a separate entry of the source. Read-outs that look alike come from different tables or passages of the source.

What was measured:
[1] = test system: IFN-α and TNF-α; settings: nude mice; topical 1 and 5% cream; cited from earlier work
[2] = test system: infantile hemangioma (IH); experiment: Clinical cases: topical 5% imiquimod cream in 4 patients with infantile hemangioma; type: in vivo, human
Excerpt: The option of topical 5% imiquimod cream at a frequency of three times per week was offered to the parents of 4 patients with IH. In each case this treatment option was found acceptable by both parents, who fully understood that this was an off label use of the medication.
A child presented for consultation with an IH on the frontal scalp (3.0×2.5 cm) that was noticed and enlarged rapidly.
A child presented with a red-grey bulbous, 4.5 cm in diameter IH on the frontal scalp that appeared and grew rapidly. MRI analysis supported the clinical diagnosis of IH. […] The medication at the parent's request was discontinued. […] Imiquimod was restarted and increased to every other day for 6 weeks. […] Therapy was discontinued.
A healthy infant was born with a small reddish, flat IH over the left lower lip that started to grow rapidly. Imiquimod, 5%, cream was applied every other day to the outer lip area only. […] The patient is […] and continues the treatment.
An infant was born with a IH on the right upper eyelid that grew rapidly during their first few months life. An MRI study excluded any involvement of any underling ocular structure. Topical application of imiquimod 5% cream was applied every other day for one month over the entire IH.

[3] = test system: epithelioid hemangioendothelioma (EH); experiment: Clinical case: 5% imiquimod topical cream in a patient with epithelioid hemangioendothelioma; type: in vivo, human
Excerpt: EH is a low grade malignant vascular tumor that occurs most commonly in the superficial or deep soft tissues of the body. The patient refused surgery for personal reasons, but acquiesced to the use of 5% imiquimod cream, even though such usage was off label.
A patient developed a nodule on the left cheek that started to grow over the period of 6 months. […] However, they were willing to apply 5% imiquimod topical cream after they were informed of the success of this agent in treatment of some skin cancers and hemangiomas.

[4] = test system: IFN-α and TNF-α; settings: rats; topical 1 and 5% cream; cited from earlier work
[5] = test system: cytokines including IL-2 and IFN-γ; settings: as a result of IL-12 production; cited from earlier work
[6] = test system: polyoma virus-induced hemangioendothelioma; settings: topical imiquimod; cited from earlier work
[7] = test system: Lichen Sclerosus (LS) lesions; experiment: Clinical case: topical imiquimod 5% cream in a patient with penile Lichen Sclerosus; type: in vivo, human; settings: person; for Side effects / local reaction at treated areas: imiquimod 5% cream every other day, reaction after 2 weeks; for Disappearance of LS lesions: imiquimod 5% cream topically every other day for 2 weeks, assessed two weeks after stopping
Excerpt: A person presented to our office (MIM) with the main complaint of whitish patches on the penis of 2 months duration associated with occasional pruritus. […] Because of its immunomodulatory effects, treatment of the LS lesions with imiquimod 5% cream was offered to the patient. It was clearly explained to them that this was an off label use of the medication. They began topical application to the affected areas every other day.

Q: Which results are given for `CC(C)Cn1cnc2c(N)nc3ccccc3c21` [imiquimod]?
A: IFN-α [1]: local increase; TNF-α [1]: local increase; IH lesion response ([2]; Case 1: frontal scalp IH 3.0×2.5 cm, after 4 weeks of thrice weekly application): less protuberant; Side effects ([2]; Case 1, after 4 weeks of thrice weekly application): marked erythema and crusting; IH lesion response ([2]; Case 1, after therapy discontinued for 2 weeks): marked reduction in the size of the IH; Side effects ([2]; Case 1, application every other day for 2 weeks): reappearance of inflammation and crusting; IH lesion response ([2]; Case 1, follow-up 4 weeks after end of therapy): virtually complete clinical regression of the IH with return to normal skin color; Recurrence at follow-up ([2]; Case 1, most recent follow-up): no recurrence of the lesion; Side effects ([2]; Case 2: frontal scalp IH 4.5 cm, after 3 weeks of 3 times weekly): marked crusting and erythema; IH lesion response ([2]; Case 2, four weeks after the 6 week course): near complete regression of the lesion; IH lesion at last follow-up ([2]; Case 2, last follow-up): the lesion had completely disappeared; Side effects ([2]; Case 2, restarted, every other day for 6 weeks): recurrence of erythema and crusting; IH lesion course after discontinuation ([2]; Case 2, two months after medication discontinued): rapid regrowth of the lesion; Side effects ([2]; Case 3: IH left lower lip, 5% cream every other day to outer lip area, after 2 weeks): marked inflammation and crusting over the lip area; IH lesion response, untreated area ([2]; Case 3, inner buccal mucosa (untreated)): persisted but had also decreased in size; IH lesion response, treated area ([2]; Case 3, outer lip area, after one and a half months of therapy): most of the IH over the outer lip area had regressed; Side effects ([2]; Case 4: IH right upper eyelid, 5% cream every other day): Erythema and crusting developed in two weeks; IH lesion response ([2]; Case 4, after one month of application every other day): regressed almost to the skin level; Neurologic examination ([2]; all patients of the report): none showed any adverse effects; Outcome of IH lesions ([2]; the other two patients, treatment continuing): continue to respond dramatically to treatment; Outcome of IH lesions ([2]; the two patients who completed therapy, at least one year of follow up): complete disappearance of their lesions with no recurrence at least at one year of follow up; Nodule size ([3]; after 2 weeks of application): decreased remarkably in size; Biopsy histology ([3]; biopsy just before surgery): scarring in the central cleared area and some residual tumor with marked inflammation in the peripheral inflamed rim; Lesion course in the interim before surgery ([3]; interim before surgery): continued to improve in the interim, developing a central cleared area; Side effects ([3]; person, 2.5 cm nodule left cheek, after 2 weeks of application): erythema and crusting; Re-biopsy histology ([3]; re-biopsy after 2 weeks of application): persistent hemangioendothelioma but with mild atypia and marked inflammation and fibrosis; Surgical specimen histology ([3]; surgical specimen): only scarring with no evidence of tumor; IFN-α [4]: local increase; TNF-α [4]: local increase; Cytokine production [5]: production of other cytokines including IL-2 and IFN-γ; Apoptosis [6]: increased apoptosis; Intratumoral mast cells [6]: increased intratumoral mast cells; TNF-α level [6]: elevated levels; Tissue inhibitor of metalloproteinases type 1 (TIMP-1) level [6]: elevated levels; Side effects / local reaction at treated areas [7]: strong reaction at the treated areas with pruritus, burning and intermittently mild pain; also recorded: erythematous, edematous plaques that were well defined and did not extend onto uninvolved skin; Side effects / local reaction at treated areas ([7]; listed as Imiquimod): minimal side-effects; Disappearance of LS lesions [7]: complete disappearance of the lesions; Disappearance of LS lesions ([7]; listed as Imiquimod): all the lesions of LS that were treated and developed the reaction had disappeared leaving no signs of any cutaneous change
